{"source": "ChEMBL document CHEMBL4190267", "about": "“Discovery of potent molecular chimera (CM358) to treat human metastatic melanoma” (Eur J Med Chem, 2017)", "key": {"[1]": {"tested_on": "WM 266-4", "assay": "Induction of apoptosis in human WM266.4 cells assessed as early apoptotic cells at 10 uM after 2 hrs by Annexin V-FITC/propidium iodide staining based flow cytometry (reference value: 2.64%)", "assay_type": "functional"}, "[2]": {"tested_on": "MDA-MB-231", "assay": "Growth inhibition of human MDA-MB-231 cells preincubated for 6 hrs followed compound washout measured after 24 hrs by XTT assay", "assay_type": "functional"}, "[3]": {"tested_on": "WM 266-4", "assay": "Induction of apoptosis in human WM266.4 cells assessed as early apoptotic cells at 25 uM after 24 hrs by Annexin V-FITC/propidium iodide staining based flow cytometry (reference value: 2.64%)", "assay_type": "functional"}, "[4]": {"tested_on": "WM 266-4", "assay": "Antitumor activity against human WM266.4 cells xenografted in athymic Foxn1 nu mouse assessed as tumor growth inhibition at 10 mg/kg, ip administered once daily for 3 days followed by resting period of 4 days repeated for 4 weeks starting from 5 days post tumor inoculation measured on day 19", "assay_type": "functional, organism-based"}, "[5]": {"tested_on": "WM 266-4", "assay": "Induction of apoptosis in human WM266.4 cells assessed as live cells at 10 uM after 2 hrs by Annexin V-FITC/propidium iodide staining based flow cytometry (reference value: 94.7%)", "assay_type": "functional"}, "[6]": {"tested_on": "WM 266-4", "assay": "Cell cycle arrest in human WM266.4 cells assessed as accumulation at G2 phase at 10 uM after 8 hrs by propidium iodide staining based flow cytometry (reference value: 11%)", "assay_type": "functional"}, "[7]": {"tested_on": "NCI-H1299", "assay": "Growth inhibition of human NCI-H1299 cells preincubated for 6 hrs followed compound washout measured after 24 hrs by XTT assay", "assay_type": "functional"}, "[8]": {"tested_on": "WM 266-4", "assay": "Cell cycle arrest in human WM266.4 cells assessed as accumulation at G2 phase at 10 uM after 24 hrs by propidium iodide staining based flow cytometry (reference value: 11%)", "assay_type": "functional"}, "[9]": {"assay": "Half life in human WM266.4 cells by LC-MS analysis", "assay_type": "ADME, cell-based, WM 266-4"}, "[10]": {"tested_on": "WM 266-4", "assay": "Induction of apoptosis in human WM266.4 cells assessed as live cells at 10 uM after 8 hrs by Annexin V-FITC/propidium iodide staining based flow cytometry (reference value: 94.7%)", "assay_type": "functional"}, "[11]": {"tested_on": "WM 266-4", "assay": "Growth inhibition of human WM266.4 cells at 25 uM after 24 hrs by XTT assay", "assay_type": "functional, cell-based"}, "[12]": {"tested_on": "WM 266-4", "assay": "Induction of apoptosis in human WM266.4 cells assessed as late apoptotic cells at 10 uM after 2 hrs by Annexin V-FITC/propidium iodide staining based flow cytometry (reference value: 1.41%)", "assay_type": "functional"}, "[13]": {"tested_on": "WM 266-4", "assay": "Induction of necrosis in human WM266.4 cells at 25 uM after 2 to 6 hrs by Annexin V-FITC/propidium iodide staining based fluorescence microscopic method", "assay_type": "functional, cell-based"}, "[14]": {"tested_on": "A 172", "assay": "Growth inhibition of human A172 cells preincubated for 6 hrs followed compound washout measured after 24 hrs by XTT assay", "assay_type": "functional"}, "[15]": {"tested_on": "WM 266-4", "assay": "Growth inhibition of human WM266.4 cells at 5 uM incubated up to 72 hrs by XTT assay relative to control", "assay_type": "functional", "settings": "WM 266-4, 72 h, read-out: GI"}, "[16]": {"tested_on": "WM 266-4", "assay": "Cell cycle arrest in human WM266.4 cells assessed as accumulation at S phase at 10 uM after 8 hrs by propidium iodide staining based flow cytometry (reference value: 27%)", "assay_type": "functional"}, "[17]": {"tested_on": "WM 266-4", "assay": "Induction of apoptosis in human WM266.4 cells assessed as necrotic cells at 10 uM after 2 hrs by Annexin V-FITC/propidium iodide staining based flow cytometry (reference value: 1.22%)", "assay_type": "functional"}, "[18]": {"tested_on": "WM 266-4", "assay": "Cell cycle arrest in human WM266.4 cells assessed as accumulation at G1 phase at 10 uM after 2 hrs by propidium iodide staining based flow cytometry (reference value: 59%)", "assay_type": "functional"}, "[19]": {"tested_on": "WM 266-4", "assay": "Induction of apoptosis in human WM266.4 cells assessed as early apoptotic cells at 10 uM after 24 hrs by Annexin V-FITC/propidium iodide staining based flow cytometry (reference value: 2.64%)", "assay_type": "functional"}, "[20]": {"tested_on": "WM 266-4", "assay": "Induction of apoptosis in human WM266.4 cells assessed as live cells at 25 uM after 2 hrs by Annexin V-FITC/propidium iodide staining based flow cytometry (reference value: 94.7%)", "assay_type": "functional"}, "[21]": {"tested_on": "WM 266-4", "assay": "Antitumor activity against human WM266.4 cells xenografted in athymic Foxn1 nu mouse assessed as mouse survival at 10 mg/kg, ip administered once daily for 3 days followed by resting period of 4 days repeated for 4 weeks starting from 5 days post tumor inoculation relative to control", "assay_type": "functional", "settings": "WM 266-4, ip"}, "[22]": {"tested_on": "WM 266-4", "assay": "Induction of necrosis in human WM266.4 cells at 5 to 25 uM after 16 hrs by Annexin V-FITC/propidium iodide staining based fluorescence microscopic method", "assay_type": "functional, cell-based"}, "[23]": {"biological_target": "DNA topoisomerase 2-alpha (Homo sapiens) (UniProt P11388)", "sequence (P11388 whole entry)": "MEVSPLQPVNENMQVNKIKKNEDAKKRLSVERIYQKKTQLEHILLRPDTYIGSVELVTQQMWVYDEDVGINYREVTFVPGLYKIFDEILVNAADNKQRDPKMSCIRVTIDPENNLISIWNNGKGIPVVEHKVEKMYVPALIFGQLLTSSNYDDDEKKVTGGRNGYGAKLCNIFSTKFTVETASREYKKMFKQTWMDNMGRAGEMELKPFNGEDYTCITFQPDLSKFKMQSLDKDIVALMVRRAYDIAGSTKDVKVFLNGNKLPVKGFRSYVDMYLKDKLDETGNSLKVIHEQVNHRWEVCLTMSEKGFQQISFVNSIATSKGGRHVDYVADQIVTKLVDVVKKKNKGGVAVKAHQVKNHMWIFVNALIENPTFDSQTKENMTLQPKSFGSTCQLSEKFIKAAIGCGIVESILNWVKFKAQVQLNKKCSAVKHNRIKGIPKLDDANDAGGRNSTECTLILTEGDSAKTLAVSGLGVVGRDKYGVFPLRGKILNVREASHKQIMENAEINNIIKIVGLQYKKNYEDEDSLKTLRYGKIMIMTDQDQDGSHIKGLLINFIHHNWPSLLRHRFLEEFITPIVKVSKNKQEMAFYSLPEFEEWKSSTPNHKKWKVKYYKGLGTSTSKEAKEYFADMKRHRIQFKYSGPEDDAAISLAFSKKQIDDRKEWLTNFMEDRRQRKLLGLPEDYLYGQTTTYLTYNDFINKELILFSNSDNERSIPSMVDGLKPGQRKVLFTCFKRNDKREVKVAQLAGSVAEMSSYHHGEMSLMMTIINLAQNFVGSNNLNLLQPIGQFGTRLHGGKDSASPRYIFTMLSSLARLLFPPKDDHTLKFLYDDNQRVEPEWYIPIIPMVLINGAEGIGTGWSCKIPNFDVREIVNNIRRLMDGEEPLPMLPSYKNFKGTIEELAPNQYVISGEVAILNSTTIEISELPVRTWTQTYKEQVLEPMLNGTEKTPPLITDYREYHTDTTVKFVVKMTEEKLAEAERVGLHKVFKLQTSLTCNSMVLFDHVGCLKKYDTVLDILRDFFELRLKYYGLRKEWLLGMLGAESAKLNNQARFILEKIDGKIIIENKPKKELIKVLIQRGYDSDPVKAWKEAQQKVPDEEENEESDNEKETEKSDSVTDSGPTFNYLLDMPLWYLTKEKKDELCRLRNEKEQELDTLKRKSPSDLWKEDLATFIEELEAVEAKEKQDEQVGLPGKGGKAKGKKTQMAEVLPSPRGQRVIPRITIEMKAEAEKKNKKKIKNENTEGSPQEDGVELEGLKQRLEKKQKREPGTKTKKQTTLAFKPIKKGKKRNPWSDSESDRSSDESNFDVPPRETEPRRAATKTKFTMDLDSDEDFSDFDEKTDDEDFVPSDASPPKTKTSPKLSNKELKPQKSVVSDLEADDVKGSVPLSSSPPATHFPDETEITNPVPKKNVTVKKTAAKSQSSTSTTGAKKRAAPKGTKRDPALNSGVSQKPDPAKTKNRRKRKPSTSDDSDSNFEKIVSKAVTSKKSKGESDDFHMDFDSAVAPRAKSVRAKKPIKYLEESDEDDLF", "assay": "Inhibition of human topoisomerase-2alpha assessed as reduction in enzyme-mediated decatenation at 100 uM using kinetoplast DNA as substrate after 25 mins by ethidium bromide staining based agarose gel electrophoresis method"}, "[24]": {"tested_on": "WM 266-4", "assay": "Induction of apoptosis in human WM266.4 cells assessed as live cells at 10 uM after 24 hrs by Annexin V-FITC/propidium iodide staining based flow cytometry (reference value: 94.7%)", "assay_type": "functional"}, "[25]": {"tested_on": "WM 266-4", "assay": "Induction of apoptosis in human WM266.4 cells assessed as late apoptotic cells at 10 uM after 24 hrs by Annexin V-FITC/propidium iodide staining based flow cytometry (reference value: 1.41%)", "assay_type": "functional"}, "[26]": {"tested_on": "WM 266-4", "assay": "Growth inhibition of human WM266.4 cells preincubated for 6 hrs followed compound washout measured after 24 hrs by XTT assay", "assay_type": "functional"}, "[27]": {"tested_on": "WM 266-4", "assay": "Induction of apoptosis in human WM266.4 cells assessed as necrotic cells at 25 uM after 8 hrs by Annexin V-FITC/propidium iodide staining based flow cytometry (reference value: 1.22%)", "assay_type": "functional"}, "[28]": {"tested_on": "WM 266-4", "assay": "Antitumor activity against human WM266.4 cells xenografted in athymic Foxn1 nu mouse assessed as tumor growth inhibition at 10 mg/kg, ip administered once daily for 7 days followed by resting period of 2 days repeated for 4 weeks starting from 5 days post tumor inoculation measured on day 19", "assay_type": "functional, organism-based"}, "[29]": {"tested_on": "WM 266-4", "assay": "Induction of apoptosis in human WM266.4 cells assessed as late apoptotic cells at 10 uM after 8 hrs by Annexin V-FITC/propidium iodide staining based flow cytometry (reference value: 1.41%)", "assay_type": "functional"}, "[30]": {"tested_on": "Mus musculus", "assay": "Toxicity in athymic Foxn1 nu mouse assessed as abnormal gross behavioral changes at 10 mg/kg, ip administered once daily for 3 days followed by resting period of 4 days repeated for 4 weeks", "assay_type": "organism-based", "settings": "in vivo"}, "[31]": {"tested_on": "WM 266-4", "assay": "Cell cycle arrest in human WM266.4 cells assessed as accumulation at G1 phase at 10 uM after 8 hrs by propidium iodide staining based flow cytometry (reference value: 59%)", "assay_type": "functional"}, "[32]": {"tested_on": "WM 266-4", "assay": "Induction of apoptosis in human WM266.4 cells assessed as necrotic cells at 25 uM after 24 hrs by Annexin V-FITC/propidium iodide staining based flow cytometry (reference value: 1.22%)", "assay_type": "functional"}, "[33]": {"tested_on": "WM 266-4", "assay": "Induction of apoptosis in human WM266.4 cells assessed as necrotic cells at 10 uM after 8 hrs by Annexin V-FITC/propidium iodide staining based flow cytometry (reference value: 1.22%)", "assay_type": "functional"}, "[34]": {"tested_on": "WM 266-4", "assay": "Induction of apoptosis in human WM266.4 cells assessed as late apoptotic cells at 25 uM after 8 hrs by Annexin V-FITC/propidium iodide staining based flow cytometry (reference value: 1.41%)", "assay_type": "functional"}, "[35]": {"tested_on": "WM 266-4", "assay": "Induction of apoptosis in human WM266.4 cells assessed as live cells at 25 uM after 8 hrs by Annexin V-FITC/propidium iodide staining based flow cytometry (reference value: 94.7%)", "assay_type": "functional"}}, "note": "Active and inactive are the calls of the source. The calls are words filed in the database; no cut-off is given here.", "data": [{"smiles": "CN(C)CCN1C(=O)c2cccc3cc(NC(=O)CCCc4ccc(N(CCCl)CCCl)cc4)cc(c23)C1=O.O=C(O)C(F)(F)F", "values": [{"measurement": "Activity", "setting": "[1]", "value": 5.05, "unit": "%"}, {"measurement": "GI50", "setting": "[2]", "value": 3.1, "unit": "µM"}, {"measurement": "Activity", "setting": "[3]", "value": 18.8, "unit": "%"}, {"measurement": "TGI", "setting": "[4]", "value": "Active"}, {"measurement": "Activity", "setting": "[5]", "value": 86.9, "unit": "%"}, {"measurement": "Activity", "setting": "[6]", "value": 17, "unit": "%"}, {"measurement": "GI50", "setting": "[7]", "value": 6.8, "unit": "µM"}, {"measurement": "Activity", "setting": "[8]", "value": 24, "unit": "%"}, {"measurement": "half-life", "setting": "[9]", "value": 25, "unit": "h"}, {"measurement": "Activity", "setting": "[10]", "value": 82.4, "unit": "%"}, {"measurement": "growth inhibition (GI)", "setting": "[11]", "value": "Active"}, {"measurement": "Activity", "setting": "[12]", "value": 1.46, "unit": "%"}, {"measurement": "Activity", "setting": "[13]", "value": "Active"}, {"measurement": "GI50", "setting": "[14]", "value": 7.5, "unit": "µM"}, {"measurement": "inhibition of growth at 5 µM", "setting": "[15]", "value": 100, "unit": "%"}, {"measurement": "Activity", "setting": "[16]", "value": 46, "unit": "%"}, {"measurement": "Activity", "setting": "[17]", "value": 6.58, "unit": "%"}, {"measurement": "Activity", "setting": "[18]", "value": 39, "unit": "%"}, {"measurement": "Activity", "setting": "[19]", "value": 3.9, "unit": "%"}, {"measurement": "Activity", "setting": "[20]", "value": 72.9, "unit": "%"}, {"measurement": "survival at 10 mg/kg", "setting": "[21]", "value": 60, "unit": "%"}, {"measurement": "Activity", "setting": "[22]", "value": "Active"}, {"measurement": "inhibition", "setting": "[23]", "value": "Active"}, {"measurement": "Activity", "setting": "[24]", "value": 84.5, "unit": "%"}, {"measurement": "Activity", "setting": "[25]", "value": 1.29, "unit": "%"}, {"measurement": "GI50", "setting": "[26]", "value": 8.8, "unit": "µM"}, {"measurement": "Activity", "setting": "[27]", "value": 27.9, "unit": "%"}, {"measurement": "TGI", "setting": "[28]", "value": "Active"}, {"measurement": "Activity", "setting": "[29]", "value": 1.59, "unit": "%"}, {"measurement": "Activity", "setting": "[30]", "value": "Non-Toxic"}, {"measurement": "Activity", "setting": "[31]", "value": 35, "unit": "%"}, {"measurement": "Activity", "setting": "[32]", "value": 21.4, "unit": "%"}, {"measurement": "Activity", "setting": "[33]", "value": 9.33, "unit": "%"}, {"measurement": "Activity", "setting": "[34]", "value": 5.47, "unit": "%"}, {"measurement": "Activity", "setting": "[35]", "value": 61.1, "unit": "%"}]}]}
